Measured values reported in US6403357B1, “Thermostable D-hydantoinase and the application thereof” (National Science Council, priority 2000, dated 2002).
Read-outs that look alike come from different tables or passages of the source.

Tests used:
Format in all cases: biochemical, Bacillus circulans
D-hydantoinase [1] = assay: Substrate selection of D-hydantoinase; conditions: substrate 10 mM; for Conversion to the corresponding N-carbamoyl amino acid / Specific activity: 50° C., 10 min; for Relative activity: percentage based on activity for dihydrouracil
Protocol: 10 mM Dihydrouracil, hydantoin, D,L-p-HPH, 5-[2-(methylthio)ethyl]hydantoin, and D,L-homophenylalanyl-hydantoin were used as substrates, respectively. The vector pQE-bcidht in E. coli NovaBlue, crude extracts thereof or the purified D-hydantoinase of the present invention was reacted with each substrate at 50° C. for 10 min. Enzyme activity was then measured.

D-hydantoinase [2] = assay: Effects of chelator on D-hydantoinase activity; conditions: chelator 10 μM, incubation for 10 hours
Protocol: The vector pQE-bcidht in E. coli NovaBlue, crude extracts thereof or the purified D-hydantoinase of the present invention was mixed with hydrophilic chelator, EDTA, and hydrophobic chelator, 2,6-dipicolinic acid, at 10 μM concentration, respectively. The mixture was incubated for 0-12 hours, and the enzyme activity was measured.

D-hydantoinase [3] = assay: Effects of metal ions on D-hydantoinase activity
D-hydantoinase [4] = assay: Effects of H2O2, NaCl and NH4Cl on D-hydantoinase activity; conditions: 10 min; for Effect on enzyme activity: concentration as high as 0.8 M, room temperature
Protocol: The vector pQE-bcidht in E. coli NovaBlue, crude extracts thereof or the purified D-hydantoinase of the present invention was incubated at 25° C. for 10 min. Afterwards, the catalase was added to the solution to remove residual H2O2, and then the enzyme activity was measured. In addition, various concentrations of NaCl and NH4Cl were added to the solution containing D-hydantoinase. The solution was incubated at room temperature for 10 min, and the enzyme activity was measured.

D-hydantoinase [5] = assay: Conditions of converting D,L-p-HPH by D-hydantoinase; conditions: enzyme pre-mixed with Mn2+ and incubated in an ice solution for 4 days
Protocol: The reaction pH of D-hydantoinase is between 5 and 10. […] The substrate solubility and enzyme activity can be elevated by grinding D,L-p-HPH to powder form, dissolving the powdered substrate in 50 mM Tris-HCl (pH 8.0), followed by stirring the solution at room temperature for 2 hours. In addition, A suitable amount of DMSO can also enhance the solubility of substrate D,L-p-HPH, and elevate the conversion efficiency from D,L-p-HPH to D-p-HPG by the D-hydantoinase of the present invention.

D-hydantoinase [6] = assay: Thermostability of D-hydantoinase; conditions: after 60 days incubation at 50° C.
Protocol: The vector pQE-bcidht in E. coli NovaBlue, crude extracts thereof or the purified D-hydantoinase of the present invention (47 unit/mg; containing 500 μM Mn^2+), was incubated at 50° C. in a thermostat water bath. The specific activity of the enzyme was measured at various time intervals.

D-hydantoinase [7] = assay: Reaction pH of D-hydantoinase; conditions: 10 mM D,L-p-HPH, 50° C., 10 min
Protocol: The substrate D,L-p-HPH was dissolved in various pH buffers at the final concentration of 10 mM. The vector pQE-bcidht in E. coli NovaBlue, crude extracts thereof or the purified D-hydantoinase of the present invention, were added to each buffer containing substrate, and incubated at 50° C. for 10 min. The specific activity of the enzyme was then measured.

D-hydantoinase [8] = assay: Reaction temperature of D-hydantoinase; conditions: 500 μM Mn2+, 10 mM D,L-p-HPH, pH 8.0, 10 min
Protocol: The vector pQE-bcidht in E. coli NovaBlue, crude extracts thereof or the purified D-hydantoinase of the present invention (containing 500 μM Mn^2+), was added to 10 mM substrate of D,L-p-HPH (dissolved in 50 mM Tris-HCl (pH 8.0)). The mixture was incubated at various temperature (30-90° C.) for 10 min. The specific activity of the enzyme was then measured.

[9] = ion 500 μM, 15 min at room temperature, 10 mM D,L-p-HPH in 50 mM Tris-HCl pH 8.0
[10] = ion 500 μM, percentage based on activity without adding ions

Q: Which results are given for O=C1NC(=O)C(CCc2ccccc2)N1 (racemic) [D,L-Homophenylalanyl-hydantoin, D,L-homophenylalanyl-hydantoin]?
A: Conversion to the corresponding N-carbamoyl amino acid (D-hydantoinase [1]): capable of converting; Specific activity (D-hydantoinase [1]): 45.64 unit/mg; Relative activity (D-hydantoinase [1]): 84%

Q: O=C1NC(=O)C(c2ccc(O)cc2)N1 (racemic) [D,L-p-Hydroxyphenylhydantoin, D,L-p-hydroxyphenylhydantoin] was tested. Which “Conversion to the corresponding N-carbamoyl amino acid” value (from here on “Conversion”) (D-hydantoinase [1]) did it give?
A: capable of converting

Q: And the Specific activity (D-hydantoinase [1])?
A: 47.43 unit/mg

Q: What about the Relative activity (D-hydantoinase [1]) of the same molecule?
A: 87%

Q: For O=C(O)c1cccc(C(=O)O)n1 [2,6-dipicolinic acid], which Retained enzyme activity (D-hydantoinase [2]) is on record?
A: 40%

Q: CSCCC1NC(=O)NC1=O (stereo not shown) [5-[2-(Methylthio)ethyl]-hydantoin, 5-[2-(methylthio)ethyl]hydantoin] was tested. Which “Conversion” value (D-hydantoinase [1]) did it give?
A: capable of converting

Q: And the Specific activity (D-hydantoinase [1])?
A: 21.48 unit/mg

Q: And the Relative activity (D-hydantoinase [1])?
A: 40%

Q: How did the Specific activity (D-hydantoinase [3]; [9]) turn out when [Ca+2].[Cl-].[Cl-] [CaCl2] was run?
A: 2.53 unit/mg

Q: And the Relative activity (D-hydantoinase [3]; [10])?
A: 88%

Q: [Cl-].[Cl-].[Co+2] [CoCl2] was tested. Which “Effect on enzyme activity” value (D-hydantoinase [3]) did it give?
A: enhance the enzyme activity

Q: And the “Increase of enzyme activity, times original activity” value (shortened to “Increase of enzyme activity”) (D-hydantoinase [3])?
A: 4.5 times

Q: And the Relative activity (D-hydantoinase [3])?
A: 252%

Q: What about the Specific activity (D-hydantoinase [3]; pH 8) of the same molecule?
A: 7.25 unit/mg

Q: What does the source list for [Cl][Cu][Cl] [CuCl2]?
A: Inhibition of D-hydantoinase activity (D-hydantoinase [3]; ion 500 μM): 22%; Specific activity (D-hydantoinase [3]; [9]): 2.26 unit/mg; Relative activity (D-hydantoinase [3]; [10]): 78%

Q: Which results are given for O=C1CCNC(=O)N1 [Dihydrouracil]?
A: Specific activity (D-hydantoinase [1]): 54.29 unit/mg; Specific activity (D-hydantoinase [1]; listed as dihydrouracil): 54 unit/mg; Relative activity (D-hydantoinase [1]): 100%

Q: With O=C(O)CN(CCN(CC(=O)O)CC(=O)O)CC(=O)O [EDTA] as the molecule, how does the Retained enzyme activity (D-hydantoinase [2]) read?
A: 70%

Q: Which Specific activity (D-hydantoinase [3]; [9]) does the source give for [Cl][Fe]([Cl])[Cl] [FeCl3] here?
A: 2.52 unit/mg

Q: What about the Relative activity (D-hydantoinase [3]; [10]) of the same molecule?
A: 87.5%

Q: Which results are given for O=S(=O)([O-])[O-].[Fe+2] [FeSO2]?
A: Specific activity (D-hydantoinase [3]; [9]): 2.52 unit/mg; Relative activity (D-hydantoinase [3]; [10]): 87.5%

Q: Which Retained enzyme activity (D-hydantoinase [4]; 0.8 M H2O2, 25° C.) does the source give for OO [H2O2] here?
A: 85%

Q: O=C1CNC(=O)N1 [Hydantoin] was tested. Which “Conversion” value (D-hydantoinase [1]) did it give?
A: capable of converting

Q: What about the Specific activity (D-hydantoinase [1]) of the same molecule?
A: 41.43 unit/mg

Q: What about the Relative activity (D-hydantoinase [1]) of the same molecule?
A: 76%

Q: What does the source list for [Cl-].[Cl-].[Mg+2] [MgCl2]?
A: Specific activity (D-hydantoinase [3]; [9]): 2.62 unit/mg; Relative activity (D-hydantoinase [3]; [10]): 91%

Q: How did the Specific activity (D-hydantoinase [3]; [9]) turn out when O=S(=O)([O-])[O-].[Mg+2] [MgSO4] was run?
A: 2.69 unit/mg

Q: And the Relative activity (D-hydantoinase [3]; [10])?
A: 94%

Q: How did the “Increase of enzyme activity” value (D-hydantoinase [3]; 500 μM Mn2+) turn out when [Cl][Mn][Cl] [MnCl2] was run?
A: 7.7 times

Q: And the “Effect on enzyme activity” value (D-hydantoinase [3]; divalent metal ion added)?
A: enhance the enzyme activity

Q: And the Specific activity (D-hydantoinase [3]; [9])?
A: 22.25 unit/mg

Q: What about the Relative activity (D-hydantoinase [3]; [10]) of the same molecule?
A: 773%

Q: For Cl.N [NH4Cl], which “Effect on enzyme activity” value (D-hydantoinase [4]) is on record?
A: not affected

Q: For [Cl-].[Na+] [NaCl], which “Effect on enzyme activity” value (D-hydantoinase [4]) is on record?
A: not affected

Q: Which “Increase of enzyme activity” value (D-hydantoinase [3]; 100 μM Ni2+) does the source give for O=S(=O)([O-])[O-].[Ni+2] [NiSO4] here?
A: 1.3 times

Q: And the “Effect on enzyme activity” value (D-hydantoinase [3]; divalent metal ion added)?
A: enhance the enzyme activity

Q: What about the Specific activity (D-hydantoinase [3]; [9]) of the same molecule?
A: 4.00 unit/mg

Q: And the Relative activity (D-hydantoinase [3]; [10])?
A: 139%

Q: Which results are given for O=S(=O)([O-])[O-].[Zn+2] [ZnSO4]?
A: Inhibition of D-hydantoinase activity (D-hydantoinase [3]; ion 500 μM): 50%; Specific activity (D-hydantoinase [3]; [9]): 1.44 unit/mg; Relative activity (D-hydantoinase [3]; [10]): 50%

B1: D-hydantoinase: thermostable D-hydantoinase from Bacillus circulans, amino acid sequence SEQ ID NO:1, 461 amino acids, expressed in E. coli (protein)
chain: MKKWIRNGTVVTASDTYQADVLIDGEKVVAIGSDLQATDAEVIDATGYYLLPGGIDPHTHLDMPFGGTVTSDNFFTGTKAAAFGGTTSIVDFCLTSKGESLHSAIATWHEKARGKAVIDYGFHLMVSDANDHVLEELESVVNNEGITSLKVFMAYKNVLMADDETLFKTLIRAKELGALVQVHAENGDVLDYLTKQALAEGNTDPIYHAYTRPPEAEGEATGRAIALTALADAQLYVVHVSCADAVRRIAEAREKGWNVYGETCPQYLVLDITALEKPDFEGAKYVWSPPLREKWNQDVLWSALKNGILQTVGSDHCPFNFSGQKELGRRDFTKIPNGGPIIEDRMTILFSEGVRKGKISLNQFVDITSTKVAKLFGMFPQKGTIAVGSDADIVLFDPTVQRTISVETHHMNVDYNPFEGMQVHGDVISVLSRGAFVVRNKQFVGHAGAGRYVKRSTFARP
Q: What does the source list for B1?
A: Maximum specific activity for catalysis of D,L-p-HPH (D-hydantoinase [5]): 47 unit/mg; Activity after long incubation (D-hydantoinase [6]): retains activity; Enzyme activity (D-hydantoinase [7]; pH 4.0): loses its entire activity; Highest specific activity (D-hydantoinase [7]; pH 8.5): 3.36 unit/mg; Specific activity (D-hydantoinase [8]; 30° C.): 9.0 unit/mg; Highest specific activity (D-hydantoinase [8]; 60° C.): 28.32 unit/mg; Specific activity (D-hydantoinase [8]; 90° C.): 4.26 unit/mg
